In ChEMBL document CHEMBL1201862, “PubChem BioAssay data set” (2004):
The source made the active and inactive calls.

Assays:
[1] = P. falciparum 3D7-ScDHODH growth inhibitors, dose response, SYBR Green, dry powder samples (AID 1159570); assay type: functional, cell-based;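 also: parasite growth measured after 72 hours of compound exposure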
[2] = HepG2 cell cytotoxicity, dose response, cytotoxicity control, plate reader, dry powder samples (AID 1159569); assay type: functional, cell-based;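 also: inhibitor potency with signal falling toward the positive control level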
[3] = P. falciparum Dd2 growth inhibitors, dose response, SYBR Green, cherry-picked samples (AID 1159567); assay type: functional, cell-based
[4] = P. falciparum Dd2 growth inhibitors, dose response, SYBR Green, dry powder samples (AID 1159566); assay type: functional, cell-based;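 also: potency for growth inhibition with lower SYBR green DNA signal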
[5] = Plasmodium falciparum Dd2 Sybr green parasite growth Measured in Cell-Based and Microorganism Combination System Using Plate Reader - 2153-01_Inhibitor_Dose_DryPowder_Activity_Set3.; assay type: functional
[6] = P. falciparum ATP4 D1247Y mutant growth inhibitors, dose response, NITD609-resistant line, SYBR Green, dry powder (AID 1159571); assay type: functional, cell-based;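 also: parasites synchronized at ring stage by sorbitol before testing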
Kallikrein-7 = Kallikrein-7 (Homo sapiens, UniProt P49862); test: Fluorescence Intensity-based biochemical primary high throughput dose response assay to identify activators of kallikrein-7 (K7) zymogen.
[7] = inhibitors of HIV Env-driven cell fusion, dose response, cherry-pick (AID 652057); assay type: functional, cell-based
[8] = ZM109 Env clade C HIV-1 fusion inhibitors, dose response, HeLa effector, CEM target cells, luciferase, cherry-pick (AID 652058); assay type: functional, cell-based
[9] = off-target signal loss in HeLa-CEM21 co-culture – HeLa F-luc CTL cells, cherry-picked, counter-screen for HIV-1 Env fusion inhibitor project, dose response (AID 652040); assay type: functional, cell-based;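 also: potency for signal decrease marking cytotoxic or nonspecific inhibition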
[10] = inhibitors of clade B AD8 Env fusion, dose response, cell-based, cherry-pick (AID 652062); assay type: functional;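 also: luciferase signal from cell-cell fusion driven by HIV-1 clade B AD8 Env; potency is for inhibitors of fusion seen as a drop in luminescence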
[11] = HIV Env cell-cell fusion inhibitors, dose response, HIV entry, plate reader, dry powder (AID 687023); assay type: functional, cell-based
[12] = CEM21 cell cytotoxicity, dose response, cytotoxicity control, plate reader, dry powder (AID 687026); assay type: functional, cell-based
[13] = Luminescence Cell-Based Dose Response HTS to Identify Activators of Luciferase Translation or Activity in H4 […] Cells. [Related pubchem assays: 1829 (Project Summary), 1814 (Primary HTS)]; assay type: functional
[14] = Luminescence-based cell-based high throughput dose response assay to identify activators of the DAF-12 from the parasite S. stercoralis (ssDAF-12).; assay type: functional
[15] = biological target: T1, Oxysterols receptor LXR-beta (Homo sapiens, UniProt P55055); test: LXR agonists, Gal4 luciferase reporter, dose response, counter-screen for ssDAF-12 agonist project, cell-based, luminescence, HEK293, S. stercoralis campaign (AID 720737); assay type: functional; details: read-out: IC50 (the source's name)
T1 sequence (P55055 whole entry): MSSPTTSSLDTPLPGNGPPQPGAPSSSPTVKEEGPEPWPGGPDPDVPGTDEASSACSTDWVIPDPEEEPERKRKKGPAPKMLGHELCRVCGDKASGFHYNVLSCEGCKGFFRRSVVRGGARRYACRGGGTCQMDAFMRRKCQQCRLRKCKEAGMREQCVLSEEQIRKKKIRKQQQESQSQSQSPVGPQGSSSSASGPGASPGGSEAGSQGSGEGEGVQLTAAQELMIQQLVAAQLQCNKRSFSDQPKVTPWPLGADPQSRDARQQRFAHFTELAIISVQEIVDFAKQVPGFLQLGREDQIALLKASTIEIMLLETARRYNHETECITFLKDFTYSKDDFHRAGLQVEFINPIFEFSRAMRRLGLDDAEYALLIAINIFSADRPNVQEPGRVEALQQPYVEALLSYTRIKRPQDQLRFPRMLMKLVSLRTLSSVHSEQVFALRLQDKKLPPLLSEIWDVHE

[16] = HeLa 2N DNA content increase, dose response, cell-based, IC50 (AID 1117349); assay type: functional
[17] = Concentration-dependent survival of SW480 colon cancer line, luminescence detection with CellTiter-Glo, half-maximal inhibitory concentration (AID 1117338); assay type: functional
[18] = RKO cell viability reduction, dose response, CellTiter-Glo luminescence (AID 1117322); assay type: functional
[19] = cytotoxicity toward HCT116 cells – cell-based, CellTiter-Glo luminescence, IC50, dose response (AID 1117332); assay type: functional; details: HCT-116
[20] = SNU-C1 cell viability reduction, dose response, CellTiter-Glo luminescence (AID 1117323); assay type: functional, cell-based
[21] = cytotoxicity toward Colo320 cells – cell-based, CellTiter-Glo luminescence, IC50, dose response (AID 1117334); assay type: functional; details: COLO 320
[22] = HeLa 4N DNA content increase, dose response, cell-based, IC50 (AID 1117351); assay type: functional
[23] = cytotoxicity toward HT-29 cells – cell-based, CellTiter-Glo luminescence, IC50, dose response (AID 1117330); assay type: functional
[24] = CellTiter-Glo luminescent dose response of DLD-1 viability loss (AID 1117352); assay type: functional
[25] = HCT116 cell viability decrease, GSK3B pretreatment – CellTiter-Glo, IC50, dose response (AID 1117339); assay type: functional; details: HCT-116
Paired box protein Pax-8 = Paired box protein Pax-8 (Homo sapiens, UniProt Q06710); test: inhibitors of PAX8-driven TPO luciferase reporter, dose response, RMG-I cells, cherry-pick (AID 687027); assay type: functional, cell-based;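 also: luciferase reporter driven by Pax8 target thyroperoxidase promoter measured by SteadyGlo luminescence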
[26] = PAX2 cell-based inhibition, dose response, selectivity assay for PAX8 inhibitor project, plate reader, dry powder samples (AID 743048); assay type: functional;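 also: HEK293 cells carrying a WT1 promoter luciferase reporter driven by expressed Pax2; potency is for inhibition of Pax2 driven reporter signal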
[27] = NIH:OVCAR-3 ovarian cancer cell cytotoxicity, dose response, PAX8 inhibitor project, plate reader, dry powder samples (AID 743044); assay type: functional, cell-based
[28] = PAX5 activity inhibitors, dose response, selectivity assay for PAX8 inhibitor project, cell-based, plate reader, dry powder samples (AID 743047); assay type: functional;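 also: HEK293 cells carrying a Pax5 driven CD19 promoter luciferase reporter; potency of inhibitors that lower reporter luminescence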
[29] = IGROV1 ovarian cancer cell cytotoxicity, dose response, PAX8 inhibitor project, plate reader, dry powder samples (AID 743043); assay type: functional, cell-based; details: IGROV-1
[30] = cytotoxicity in COV434 cells, dose response, cytotoxicity control for PAX8 inhibitor project, cell-based, plate reader, dry powder, SA7 (AID 743145); assay type: functional
[31] = cytotoxicity in OVCAR8 ovarian cancer cells, dose response, PAX8 project, cell-based, plate reader, dry powder samples (AID 743197); assay type: functional; details: OVCAR-8
[32] = cytotoxicity dependent on PAX8, dose response, cell-based, plate reader, dry powder (AID 743049); assay type: functional
[33] = biological target: NAD-dependent protein deacylase sirtuin-5, mitochondrial (Homo sapiens, UniProt Q9NXA8); test: SIRT5 deacylase inhibitors, dose response, biochemical, fluorescence imaging, cherry-pick, set 6 (AID 720597)
NAD-dependent protein deacylase sirtuin-5, mitochondrial, sequence (Q9NXA8 whole entry): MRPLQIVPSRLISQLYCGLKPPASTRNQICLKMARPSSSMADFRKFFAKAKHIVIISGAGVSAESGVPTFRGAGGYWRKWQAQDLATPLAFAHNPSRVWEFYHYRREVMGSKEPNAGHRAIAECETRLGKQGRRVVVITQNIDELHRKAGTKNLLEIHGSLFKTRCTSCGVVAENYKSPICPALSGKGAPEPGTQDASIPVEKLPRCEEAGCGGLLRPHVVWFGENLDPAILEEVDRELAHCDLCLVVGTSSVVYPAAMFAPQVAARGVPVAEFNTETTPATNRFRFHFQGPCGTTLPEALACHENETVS

Paired box protein Pax-8, sequence (Q06710 whole entry): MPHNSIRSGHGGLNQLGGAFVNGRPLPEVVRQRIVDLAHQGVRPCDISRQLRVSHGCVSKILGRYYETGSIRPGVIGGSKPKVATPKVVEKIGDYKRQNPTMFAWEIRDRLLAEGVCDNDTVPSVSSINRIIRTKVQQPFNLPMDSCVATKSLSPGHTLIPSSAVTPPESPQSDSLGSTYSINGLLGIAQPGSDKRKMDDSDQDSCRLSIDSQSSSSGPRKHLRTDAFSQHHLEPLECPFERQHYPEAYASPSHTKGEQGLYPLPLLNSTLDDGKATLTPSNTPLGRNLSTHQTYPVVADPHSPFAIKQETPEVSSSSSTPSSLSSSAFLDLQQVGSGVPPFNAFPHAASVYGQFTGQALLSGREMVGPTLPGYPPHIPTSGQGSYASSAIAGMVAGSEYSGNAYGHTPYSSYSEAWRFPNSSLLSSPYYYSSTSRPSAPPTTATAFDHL
Kallikrein-7, sequence (P49862 whole entry, the tested form may be a part): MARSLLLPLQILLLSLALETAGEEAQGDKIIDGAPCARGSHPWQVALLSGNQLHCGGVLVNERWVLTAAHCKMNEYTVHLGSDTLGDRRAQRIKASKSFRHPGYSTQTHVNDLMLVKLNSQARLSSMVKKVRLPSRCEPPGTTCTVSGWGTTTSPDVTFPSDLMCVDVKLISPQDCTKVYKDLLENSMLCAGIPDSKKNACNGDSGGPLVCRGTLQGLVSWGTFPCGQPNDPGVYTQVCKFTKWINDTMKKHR

COc1ccc(CN2C[C@@H](C)[C@H](OC)CN(C)C(=O)c3ccc(NC(=O)c4nc5ccccc5s4)cc3OC[C@H]2C)cc1
inactive: AC50 [2] > 92 µM
active: AC50 [1] 3.16 µM | AC50 [3] 0.854 µM | AC50 [4] 0.643 µM | AC50 [5] 1.06 µM | AC50 [6] 1.25 µM

Cc1nn(-c2ccccn2)c2nc(-c3cccs3)cc(C(=O)N3CCOCC3)c12
inactive: EC50 (Kallikrein-7) > 69.5 µM

O=C(Nc1ccc2c(c1)CCC2)C1CCN(c2c3c(nc4ncnn24)CCC3)CC1
inactive: AC50 [12] > 70 µM
active: AC50 [7] 9.44 µM | AC50 [8] 1.4 µM | AC50 [9] 41.2 µM | AC50 [10] 3.88 µM | AC50 [11] 5.08 µM

Cc1c(C(=O)Nc2ccccn2)oc2ccccc12
active: EC50 [13] 0.901 µM
inactive: IC50 [14] > 67.5 µM | EC50 [15] > 67.5 µM

O=C(O)CCc1nc2ccccc2[nH]1 [PROCODAZOLE]
inactive: IC50 [16] > 10 µM | IC50 [17] > 20 µM | IC50 [18] > 20 µM | IC50 [19] > 20 µM | IC50 [20] > 20 µM | IC50 [21] > 20 µM | IC50 [22] > 10 µM | IC50 [23] > 20 µM
active: IC50 [24] 2.42 µM | IC50 [25] 2.2 µM

O=C(C[C@H]1CC[C@H]2[C@@H](COC[C@@H](O)CN2S(=O)(=O)c2cccc(Cl)c2)O1)Nc1ccc(-c2ccccc2)cc1
active: AC50 (Paired box protein Pax-8) 8.28 µM | AC50 [26] 8.55 µM | AC50 [27] 43 µM | AC50 [28] 3.85 µM | AC50 [29] 31.2 µM | AC50 [30] 37.9 µM | AC50 [31] 27.7 µM | AC50 [32] 20.3 µM

CC(C)CC#Cc1ccc2c(c1)O[C@@H](CN(C)S(=O)(=O)c1cccc(F)c1)[C@H](C)CN([C@H](C)CO)S2(=O)=O
active: AC50 [33] 26.3 µM
